We go through 70 compounds from ChEMBL document CHEMBL5604063, “ASAP - DENV-2 NS2B-NS3 protease fluorescence dose response” (2024).

The target in assay [1] is T1, Genome polyprotein (dengue virus type 2, UniProt P29990). In kind it is functional, Thailand/16681/1984.
Assay [2] has as its target T1, Genome polyprotein. The assay is classed as functional, Thailand/16681/1984. The source holds these as a separate data set.

Molecules are shown by their SMILES. Where “and” joins values, the source holds several entries; their conditions need not be identical. Equal values may be shown once.

T1 sequence (P29990 1346-1475 limits assumed): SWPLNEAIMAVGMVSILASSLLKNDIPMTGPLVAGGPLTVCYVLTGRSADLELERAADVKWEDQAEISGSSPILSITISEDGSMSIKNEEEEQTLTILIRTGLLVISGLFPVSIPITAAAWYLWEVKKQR
T1 sequence (P29990 1476-2093 limits assumed): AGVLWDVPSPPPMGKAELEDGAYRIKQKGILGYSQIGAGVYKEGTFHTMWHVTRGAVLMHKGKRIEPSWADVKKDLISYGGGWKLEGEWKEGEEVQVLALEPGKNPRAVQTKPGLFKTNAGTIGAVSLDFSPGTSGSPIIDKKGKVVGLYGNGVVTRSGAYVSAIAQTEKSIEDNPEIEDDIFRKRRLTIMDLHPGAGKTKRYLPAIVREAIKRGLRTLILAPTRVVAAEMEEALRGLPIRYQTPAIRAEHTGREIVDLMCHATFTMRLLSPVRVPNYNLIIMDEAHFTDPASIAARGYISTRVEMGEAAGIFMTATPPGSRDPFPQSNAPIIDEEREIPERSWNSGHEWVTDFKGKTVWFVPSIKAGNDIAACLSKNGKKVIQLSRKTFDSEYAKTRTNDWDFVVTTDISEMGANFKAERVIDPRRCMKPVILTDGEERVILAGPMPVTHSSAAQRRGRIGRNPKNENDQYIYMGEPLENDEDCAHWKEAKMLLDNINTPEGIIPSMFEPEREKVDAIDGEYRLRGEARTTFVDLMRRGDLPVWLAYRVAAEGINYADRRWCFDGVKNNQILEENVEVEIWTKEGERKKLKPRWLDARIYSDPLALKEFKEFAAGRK

Turning to `Brc1csc(CNCCc2nnc[nH]2)c1`, the 50% inhibitory concentration (IC50) is greater than 100 µM against Genome polyprotein [1] and greater than 99.5 µM on Genome polyprotein [2].
Consider `Cc1cc(C(=O)Nc2cccc(CN)c2)c2cnn(-c3ccc(F)cc3)c2n1`, for which the concentration for half-maximal inhibition (IC50) on Genome polyprotein [1] is greater than 100 µM; on Genome polyprotein [2], greater than 99.5 µM.
On the same counts, the results for `COCc1cc(NC(=O)OCc2ccccc2)cc(C(=O)Nc2cccc(CN)c2)c1` are greater than 100 µM and greater than 99.5 µM.
For `NCc1cccc(NC(=O)c2cc(Cl)cc(Cl)c2)c1` the same measures were greater than 100 µM and greater than 99.5 µM.
In the case of `CC(C)c1cc(NC(=O)OCc2ccccc2)cc(C(=O)Nc2cccc(CN)c2)c1`, the IC50 against Genome polyprotein [1] was greater than 100 µM; against Genome polyprotein [2] it was 66.9 µM.
For `CN(C)Cc1cc(Cl)cc(C(=O)Nc2cccc(CN)c2)c1`, the IC50 was greater than 100 µM on Genome polyprotein [1] and greater than 99.5 µM against Genome polyprotein [2].
Take `CCn1c(=O)c(N2CC[C@H](CO)C2)nc2ccc(C(=O)N(C)C)cc21`: the IC50 is greater than 100 µM at Genome polyprotein [1] and greater than 99.5 µM against Genome polyprotein [2].
Turning to `NCc1ccc(I)c(NC(=O)c2cc(Cl)cc(NC(=O)OCc3ccccc3)c2)c1`, the results for the IC50 against Genome polyprotein [1] and at Genome polyprotein [2] were greater than 100 µM and 52.1 µM, respectively.
Consider `O=C(Nc1cc(Cl)cc(C(=O)Nc2cccc([C@H]3C[C@H]3C(=O)O)c2)c1)OCc1ccccc1`, for which the half-maximal inhibitory concentration (IC50) against Genome polyprotein [1] is 12.3 µM (3×) and 10.2 µM and 15.6 µM and 14.8 µM; on Genome polyprotein [2], 19.6 µM and 25.7 µM and 26.9 µM and 24.8 µM.
For `NCc1cccc(NC(=O)c2cc(NC(=O)OCc3ccccc3)cc(C3CC3)c2)c1`, the concentration for half-maximal inhibition (IC50) is greater than 100 µM at Genome polyprotein [1] and 76.1 µM against Genome polyprotein [2].
For `C[C@H]1CN(C)C[C@@H](C(=O)Nc2cccc(CN)c2)O1` the same measures were greater than 100 µM and greater than 99.5 µM.
For `Cc1cc(NC(=O)OCc2ccccc2)cc(C(=O)Nc2cccc(CN)c2)c1` the same measures were greater than 100 µM and greater than 99.5 µM.
`O=C(O)COc1cccc(NC(=O)c2cc(Cl)cc(NC(=O)OCc3ccccc3)c2)c1`: the IC50 at Genome polyprotein [1] is 28 µM and 22.5 µM; on Genome polyprotein [2] it was 45.5 µM.
Consider `C[C@H]1C[C@@H](C(=O)Nc2cccc(CN)c2)CC(=O)N1`, for which the results for the 50% inhibitory concentration (IC50) against Genome polyprotein [1] and on Genome polyprotein [2] were greater than 100 µM and greater than 99.5 µM, respectively.
For the compound `O=C1NC[C@H](c2ccc(OCc3ccccc3)c(Br)c2)N1C(=O)OCc1ccccc1`, the concentration for half-maximal inhibition (IC50) on Genome polyprotein [1] is greater than 100 µM; against Genome polyprotein [2] it was greater than 99.5 µM.
Consider `O=Cc1cc(Cl)cc(NC(=O)OCc2ccccc2)c1`, for which the IC50 at Genome polyprotein [1] was greater than 100 µM; against Genome polyprotein [2], greater than 99.5 µM.
On the same counts, the results for `CCn1c(=O)c(N2CC[C@H](CO)C2)nc2cc(C(=O)O)ccc21` are greater than 100 µM and greater than 99.5 µM.
As to `NCc1cccc(NC(=O)C2CCNCC2)c1`, the results for the IC50 on Genome polyprotein [1] and at Genome polyprotein [2] were greater than 100 µM and greater than 99.5 µM, respectively.
For `NCc1cc(Br)cc(NC(=O)c2cc(Cl)cc(NC(=O)OCc3ccccc3)c2)c1` the same measures were greater than 100 µM and greater than 99.5 µM.
For `CC1(C)CCC(F)(F)C[C@H]1C(=O)Nc1cccc(CN)c1` the same measures were greater than 100 µM and greater than 99.5 µM.
On the same counts, the results for `OCCCCCc1nc(-c2ccc(Br)o2)no1` are greater than 100 µM and greater than 99.5 µM.
For `CCn1ncc2c(C(=O)Nc3cccc(CN)c3)cc(C)nc21`, the IC50 against Genome polyprotein [1] is greater than 100 µM; against Genome polyprotein [2], greater than 99.5 µM.
As for `O=C(NCCc1nc2ccccc2[nH]1)c1cc2ccc(F)cc2s1`, the half-maximal inhibitory concentration (IC50) against Genome polyprotein [1] was greater than 100 µM; at Genome polyprotein [2] it was greater than 99.5 µM.
For `Cc1cc(C(=O)Nc2cccc(CN)c2)nc(C)n1`, the IC50 is greater than 100 µM against Genome polyprotein [1] and greater than 99.5 µM against Genome polyprotein [2].
As to `O=C(Nc1cc(Cl)cc(C(=O)Nc2cccc(CN3CCCC3=O)c2)c1)OCc1ccccc1`, the values for the IC50 against Genome polyprotein [1] and at Genome polyprotein [2] were greater than 100 µM and greater than 99.5 µM, respectively.
On the same counts, the results for `O=C(Nc1cc(Cl)cc(C(=O)Nc2ccc3c(c2)OCCNC3)c1)OCc1ccccc1` are greater than 100 µM and greater than 99.5 µM.
Regarding `Cc1cc(C(=O)Nc2cccc(CN)c2)cc(O)n1`, the results for the concentration for half-maximal inhibition (IC50) against Genome polyprotein [1] and at Genome polyprotein [2] were greater than 100 µM and greater than 99.5 µM, respectively.
For `Cc1ccc(S(=O)(=O)CCCn2ccc3sccc3c2=O)cc1` the same measures were greater than 100 µM and greater than 99.5 µM.
In the case of `c1coc(CSCc2nc(-c3nc[nH]n3)no2)c1`, the IC50 against Genome polyprotein [1] was greater than 100 µM; against Genome polyprotein [2], greater than 99.5 µM.
On the same counts, the results for `NCc1cccc(NC(=O)c2cc(NC(=O)OCc3ccccc3)cc(C(F)(F)F)c2)c1` are greater than 100 µM and greater than 99.5 µM.
Turning to `CN(C)CCc1ccc(NC(=O)c2cc(Cl)cc(NC(=O)OCc3ccccc3)c2)cc1`, the values for the IC50 against Genome polyprotein [1] and on Genome polyprotein [2] were greater than 100 µM and greater than 99.5 µM, respectively.
For the compound `N#CCc1cccc(NC(=O)c2cc(Cl)cc(NC(=O)OCc3ccccc3)c2)c1`, the IC50 was greater than 100 µM on Genome polyprotein [1] and greater than 99.5 µM on Genome polyprotein [2].
For the compound `CCn1c(=O)c(N2CC[C@H](CO)C2)nc2cc(C(=O)N(C)C)ccc21`, the IC50 is greater than 100 µM on Genome polyprotein [1] and greater than 99.5 µM on Genome polyprotein [2].
On the same counts, the results for `COc1ccc2nc(C)cc(C(=O)Nc3cccc(CN)c3)c2c1` are greater than 100 µM and greater than 99.5 µM.
For `CC(C)(C)OC(=O)NCc1ccc(I)c(NC(=O)c2cc(Cl)cc(NC(=O)OCc3ccccc3)c2)c1` the same measures were greater than 100 µM and greater than 99.5 µM.
As for `NCc1cccc(NC(=O)c2cncc(Cl)c2)c1`, the IC50 at Genome polyprotein [1] was greater than 100 µM; at Genome polyprotein [2], greater than 99.5 µM.
For `CNC(=O)[C@H](Nc1ccccn1)c1cc(Cl)cc(CN)c1` the same measures were greater than 100 µM and greater than 99.5 µM.
For `O=C(Nc1cc(Cl)cc(C(=O)Nc2ccc(CCN3CCOCC3)cc2)c1)OCc1ccccc1` the same measures were greater than 100 µM and greater than 99.5 µM.
For `Cc1cc(C(=O)Nc2cccc(CN)c2)c2sc(N)nc2n1` the same measures were greater than 100 µM and greater than 99.5 µM.
Regarding `Cc1cc(C(=O)Nc2cccc(CN)c2)c2c(C)n[nH]c2n1`, the half-maximal inhibitory concentration (IC50) was greater than 100 µM at Genome polyprotein [1] and greater than 99.5 µM on Genome polyprotein [2].
`Cc1cc(C(=O)Nc2cccc(CN)c2)cc(NCc2cnn(C)c2)n1`: the figures for the IC50 at Genome polyprotein [1] and against Genome polyprotein [2] were greater than 100 µM and greater than 99.5 µM, respectively.
On the same counts, the results for `O=C(Nc1ccc2c(c1)CNC2)c1cc(O)nc(C2CC2)c1` are greater than 100 µM and greater than 99.5 µM.
For the compound `N[C@H]1CC[C@H](c2ccc(NC(=O)c3cc(Cl)cc(NC(=O)OCc4ccccc4)c3)cc2)C1`, the IC50 is 84.2 µM on Genome polyprotein [1]; 10.2 µM and 8.32 µM and 13 µM against Genome polyprotein [2].
For the compound `Brc1cnc(Sc2ncc[nH]2)nc1`, the results for the IC50 on Genome polyprotein [1] and against Genome polyprotein [2] were greater than 100 µM and greater than 99.5 µM, respectively.
On the same counts, the results for `C[C@H]1CN(C)C[C@H](C(=O)Nc2cccc(CN)c2)O1` are greater than 100 µM and greater than 99.5 µM.
On the same counts, the results for `CCn1c(=O)c(N2CC[C@H](CO)C2)nc2cc(C(=O)NS(C)(=O)=O)ccc21` are greater than 100 µM and greater than 99.5 µM.
On the same counts, the results for `CCNC(=O)c1ccc2nc(N3CC[C@H](CO)C3)c(=O)n(CC)c2c1` are greater than 100 µM and 90.4 µM.
For `Cc1cc(C(=O)N[C@H](CC(=O)Nc2cccc(CN)c2)c2ccc(OCc3ccccc3)c(Br)c2)sn1`, the IC50 is greater than 100 µM on Genome polyprotein [1]; 16.8 µM and 25.3 µM on Genome polyprotein [2].
For the compound `CS(=O)(=O)Nc1cccc(NC(=O)c2cc(Cl)cc(NC(=O)OCc3ccccc3)c2)c1`, the half-maximal inhibitory concentration (IC50) against Genome polyprotein [1] was greater than 100 µM; on Genome polyprotein [2], greater than 99.5 µM.
On the same counts, the results for `CCn1c(=O)c(N2CC[C@H](CO)C2)nc2cc(C(=O)NCc3ccccc3)ccc21` are greater than 100 µM and greater than 99.5 µM.
On the same counts, the results for `CN(C)CC[C@H](NC(=O)c1cc(Cl)cc(NC(=O)OCc2ccccc2)c1)c1ccccc1` are greater than 100 µM and greater than 99.5 µM.
As for `CCc1cccc(NC(=O)[C@]2(Oc3ccc(Br)cc3)CCNC3(CC3)C2)c1`, the IC50 against Genome polyprotein [1] is greater than 100 µM; at Genome polyprotein [2], greater than 99.5 µM.
With `CCOc1cccc(-c2ccc(NS(=O)(=O)c3cc(F)c(Cl)cc3C(=O)O)cc2)c1`, the IC50 against Genome polyprotein [1] came out at 7.73 µM; against Genome polyprotein [2], 9.4 µM.
For `CS(=O)(=O)c1cccc(NC(=O)c2cc(Cl)cc(NC(=O)OCc3ccccc3)c2)c1` the same measures were greater than 100 µM and greater than 99.5 µM.
On the same counts, the results for `C[C@H]1CNC[C@@H]1c1ccc(NC(=O)c2cc(Cl)cc(NC(=O)OCc3ccccc3)c2)cc1` are 96.6 µM and 22.4 µM.
Take `CCn1c(=O)c(N2CC[C@@H](CO)C2)nc2ccc(C(=O)O)cc21`: the figures for the IC50 on Genome polyprotein [1] and at Genome polyprotein [2] were greater than 100 µM and greater than 99.5 µM, respectively.
For `CCNC(=O)c1ccc2c(c1)nc(N1CC[C@H](CO)C1)c(=O)n2CC` the same measures were greater than 100 µM and greater than 99.5 µM.
`O=C(Nc1cc(Cl)cc(C(=O)Nc2ccc([C@]34CNC[C@H]3C4)cc2)c1)OCc1ccccc1`: the figures for the IC50 against Genome polyprotein [1] and against Genome polyprotein [2] were greater than 100 µM and greater than 99.5 µM, respectively.
Take `C[C@H]1Oc2ccc(NC(=O)c3cc(Cl)cc(NC(=O)OCc4ccccc4)c3)cc2NC1=O`: the IC50 on Genome polyprotein [1] is greater than 100 µM; on Genome polyprotein [2], greater than 99.5 µM.
For `NCc1cccc(NC(=O)[C@H]2CCOC3(CCC3)C2)c1` the same measures were greater than 100 µM and greater than 99.5 µM.
For `C[C@H]1CN(Cc2ccccc2)C[C@@H](C(=O)Nc2cccc(CN)c2)O1` the same measures were greater than 100 µM and greater than 99.5 µM.
As for `Cc1cc(Cl)cc(C(=O)Nc2cccc(CN)c2)n1`, the IC50 is greater than 100 µM on Genome polyprotein [1] and greater than 99.5 µM against Genome polyprotein [2].
`COC1(C(=O)N[C@H](CC(=O)Nc2cccc(CN)c2)c2ccc(OCc3ccccc3)c(Br)c2)CC1`: the half-inhibitory concentration (IC50) against Genome polyprotein [1] is greater than 100 µM; at Genome polyprotein [2], greater than 99.5 µM.
For `O=S(=O)(Cc1nnc(Cc2ccccc2)o1)c1ccc(O)cc1` the same measures were greater than 100 µM and greater than 99.5 µM.
With `COC(=O)[C@]12CC[C@](C(=O)Nc3cccc(CN)c3)(COC1)C2`, the values for the IC50 on Genome polyprotein [1] and at Genome polyprotein [2] were greater than 100 µM and greater than 99.5 µM, respectively.
On the same counts, the results for `CN1CCc2c(cccc2NC(=O)c2cc(Cl)cc(NC(=O)OCc3ccccc3)c2)C1` are greater than 100 µM and greater than 99.5 µM.
For `N#Cc1cc(NC(=O)OCc2ccccc2)cc(C(=O)Nc2cccc(CN)c2)c1` the same measures were greater than 100 µM and greater than 99.5 µM.
For `Cc1cc(C(=O)Nc2cccc(CN)c2)c2c(n1)CCCC2` the same measures were greater than 100 µM and greater than 99.5 µM.
Take `NCc1cccc(NC(=O)[C@@H]2CCCCN2)c1`: the values for the IC50 at Genome polyprotein [1] and against Genome polyprotein [2] were greater than 100 µM and greater than 99.5 µM, respectively.
For `C[C@H]1C[C@@H](C(=O)Nc2cccc(CN)c2)CCO1` the same measures were greater than 100 µM and greater than 99.5 µM.

As a reminder, the IC50 is the midpoint of a concentration-inhibition curve. Read a high IC50 as weaker potency in that assay.
